In this assay the target is T1, FAAH (Mus musculus, UniProt O08914).
T1 construct: A fragment of liver and brain without cerebellum were removed and put in plastic vials containing membrane buffer; from tissue; host or cells: brain (without cerebellum) and liver homogenates of male NMRI mice
T1 sequence (O08914 1-579): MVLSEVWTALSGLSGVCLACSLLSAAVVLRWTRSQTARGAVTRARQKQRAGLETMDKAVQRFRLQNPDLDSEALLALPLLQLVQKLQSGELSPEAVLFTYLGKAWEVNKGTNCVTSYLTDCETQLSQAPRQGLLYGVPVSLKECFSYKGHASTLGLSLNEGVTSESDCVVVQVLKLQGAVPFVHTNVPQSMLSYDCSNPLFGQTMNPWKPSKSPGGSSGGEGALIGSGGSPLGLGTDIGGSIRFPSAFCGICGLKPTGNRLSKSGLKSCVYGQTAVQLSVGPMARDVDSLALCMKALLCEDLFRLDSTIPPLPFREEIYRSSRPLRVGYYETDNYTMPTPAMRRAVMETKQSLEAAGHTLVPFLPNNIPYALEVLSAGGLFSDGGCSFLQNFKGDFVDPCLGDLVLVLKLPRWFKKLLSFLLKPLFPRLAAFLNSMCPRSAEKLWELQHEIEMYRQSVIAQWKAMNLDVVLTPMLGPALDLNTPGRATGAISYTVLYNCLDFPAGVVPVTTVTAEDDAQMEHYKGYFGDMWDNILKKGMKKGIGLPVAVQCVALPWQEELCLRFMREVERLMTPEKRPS
The assay is described as follows: FAAH activity in brain homogenate after oral dosing of mice. In kind it is in vivo. As to conditions: 8 h, remaining activity vs controls, low value = strong inhibitor, read-out: FAAH Activity (%) Br h. How it is done:
In vivo testing was performed according to the protocol described below. BRh (brain homogenate) indicates inhibition in central nervous tissue, in this case, brain, and LVh (liver homogenate) indicates inhibition in peripheral tissue, in this case, liver. The controls were the reaction mix minus the test compounds. Therefore, a low value for the test compound indicates a strong inhibitor.
The animals used for experiments were male NMRI mice (weighing 27-44 g) obtained from Interfauna Ibérica (Spain). Mice were kept 5 per cage, under controlled environmental conditions (12 hr light/dark cycle and room temperature 22±1° C.). Food and tap water were allowed ad libitum and the experiments were all carried out during daylight hours.
Animals were always fasted overnight before administration of compounds.
Animals were administered the appropriate dose of the compound of the invention via oral route (8 ml/kg; compound suspended in 0.5% carboxymethylcellulose (CMC) or solubilized in water) or vehicle (controls) using animal feeding stainless steel curve needles (Perfectum, U.S.A.). Fifteen minutes before sacrifice animal were anesthetized with pentobarbital 60 mg/kg administered intraperitoneally. A fragment of liver and brain without cerebellum were removed and put in plastic vials containing membrane buffer (3 mM MgCl2, 1 mM EDTA, 50 mM Tris HCl pH 7.4). Tissues were stored at −30° C. until analysis.
Anandamide [ethanolamine-1-^3H-] (40-60 Ci/mmol) was obtained from American Radiochemicals. All other reagents were obtained from Sigma-Aldrich. […]
Total protein in tissues was determined with the BioRad Protein Assay (BioRad) using a standard curve of BSA (50-250 μg/ml).
Reaction mix (total volume of 200 μl) contained: 2 μM AEA (2 μM AEA+5 nM ^3H-AEA), 0.1% fatty acid free BSA, 15 μg (brain) or 5 μg (liver) protein, in 1 mM EDTA, 10 mM Tris pH 7.6. […] Counts per minute (cpm) were determined in a MicrobetaTriLux scintillation counter. […]
The percentage of remaining enzymatic activity was calculated with respect to controls and after blank subtraction.
Consider `CN(C(=O)n1cnc(-c2cccc(NS(N)(=O)=O)c2)c1)C1CCOCC1` [Compound 1, N-Methyl-4-(3-(sulfamoylamino)phenyl)-N-(tetrahydro-2H-pyran-4-yl)-1H-imidazole-1-carboxamide], for which the activity at 3 mg/kg came to 117%. For `CCC(=O)N1CCC(N(C)C(=O)n2cnc(-c3ccc(O)c(C)c3)c2)CC1` [Compound 2, 4-(4-Hydroxy-3-methylphenyl)-N-methyl-N-(1-propionylpiperidin-4-yl)-1H-imidazole-1-carboxamide], the activity at 3 mg/kg was 81.7%.

With `Cc1cc(-c2cn(C(=O)N(C)C3CCN(C(=O)C4CC4)CC3)cn2)ccc1O` [Compound 3, N-(1-(Cyclopropanecarbonyl)piperidin-4-yl)-4-(4-hydroxy-3-methylphenyl)-N-methyl-1H-imidazole-1-carboxamide], the activity at 3 mg/kg stood at 91.7%.

Source of the values: patent publication US10501447B2, “Imidazolecarboxamides and their use as FAAH inhibitors” (BIAL-PORTELA & Ca, S.A., priority 2013, dated 2019).
